According to US20200016145A1, “TREATMENT OF CHRONIC TRAUMATIC ENCEPHALOPATHY” (CTEC LLC, priority 2018, published 2020):
Entries after “also recorded” stand apart in the source; their conditions may differ.

Legend:
neuroinflammation = experiment: Neuroinflammation markers after blast injury; assay type: in vivo, Sprague Dawley rat
Source text: This example assessed the successful targeting of ER stress after TBI. […] A Sprague Dawley rat was positioned in a protective tube to prevent injury to the peripheral organs, and an acceleration wave was generated and allowed to collide with the skull of the rat. The intensity of the injury was adjusted in a step-wise manner by decreasing or increasing the thickness of the membrane that exploded with pressurized nitrogen gas. An injury paradigm of 50 PSI was selected, which correlates with human concussion, that is the most common type of injury linked to CTE. In FIG. 4, the peak in plot D illustrates the 50 PSI pressure wave. The Sprague Dawley rats were given either one injury, or six injuries over a two-week period. Various time points of sacrifice were chosen to look at markers of ER stress and tauopathy. Salubrinal was administered to the rats after injury to target ER stress. Salubrinal was administered by IP injection 30 minutes after injury using a dose of 1 mg/kg. […] Salubrinal-mediated CHOP reduction may be associated with preservation of the pro-form of Caspase-12 that when cleaved, has been associated with ER-mediated apoptosis or cell death. Reducing CHOP with salubrinal also may result in reduction of sustained oxidative stress and neuro-inflammation. LICOR western blot protocols, IHC world immunohistochemistry protocols, and Applied Biosystems PCR protocols were used for the assays. ANOVA was used for analysis with p<0.05 being statistically significant. *=p<0.05, **=p<0.01, ***=p<0.001. When the drug group was compared to the injury group #=p<0.05, ##=p<0.01, ###=p<0.001. […] Measured components included NF kappa B (plot A), inducible nitric oxide synthase (iNOS) (plot B), interleukin 1 beta (IL-1β) (plot C), and tumor necrosis factor alpha (TNFα) (plot D). As shown in plots A, C and D, salubrinal administration (sTBI+SAL) reduced pro-inflammatory markers NFκB, IL-1β and TNFα, respectively.

Sprague Dawley rat [1] = experiment: Elevated plus maze after blast injury (impulsive-like behavior); assay type: in vivo
Description: (§1) The administration of salubrinal prior to bTBI was also evaluated in an animal model. Use of the salubrinal ameliorated neuropsychiatric deficits in the form of impulsive-like behavior as measured by the elevated plus maze test/protocol, and spatial memory as measured by the Morris water maze test/protocol. This example assessed the successful targeting of ER stress after TBI. […] A Sprague Dawley rat was positioned in a protective tube to prevent injury to the peripheral organs, and an acceleration wave was generated and allowed to collide with the skull of the rat. The intensity of the injury was adjusted in a step-wise manner by decreasing or increasing the thickness of the membrane that exploded with pressurized nitrogen gas. An injury paradigm of 50 PSI was selected, which correlates with human concussion, that is the most common type of injury linked to CTE. In FIG. 4, the peak in plot D illustrates the 50 PSI pressure wave. The Sprague Dawley rats were given either one injury, or six injuries over a two-week period. Various time points of sacrifice were chosen to look at markers of ER stress and tauopathy. In this example, the effect of targeting (turning off) ER stress on improved behavior was studied by utilizing the injury models and standard protocols for Morris water maze and elevated plus maze. The Morris water maze detected deficits in cognitive performance whereas the elevated plus maze evaluated impulsive-like behavior. […] ANOVA was used for statistical analysis with *=p<0.05, **=p<0.01, ***=p<0.001. When drug was compared to injury group #=p<0.05, ##=p<0.01, ###=p<0.001.

oxidative stress = experiment: Oxidative stress markers after blast injury; assay type: in vivo, Sprague Dawley rat
Source text: This example assessed the successful targeting of ER stress after TBI. […] A Sprague Dawley rat was positioned in a protective tube to prevent injury to the peripheral organs, and an acceleration wave was generated and allowed to collide with the skull of the rat. The intensity of the injury was adjusted in a step-wise manner by decreasing or increasing the thickness of the membrane that exploded with pressurized nitrogen gas. An injury paradigm of 50 PSI was selected, which correlates with human concussion, that is the most common type of injury linked to CTE. In FIG. 4, the peak in plot D illustrates the 50 PSI pressure wave. The Sprague Dawley rats were given either one injury, or six injuries over a two-week period. Various time points of sacrifice were chosen to look at markers of ER stress and tauopathy. Salubrinal was administered to the rats after injury to target ER stress. Salubrinal was administered by IP injection 30 minutes after injury using a dose of 1 mg/kg. […] Salubrinal-mediated CHOP reduction may be associated with preservation of the pro-form of Caspase-12 that when cleaved, has been associated with ER-mediated apoptosis or cell death. Reducing CHOP with salubrinal also may result in reduction of sustained oxidative stress and neuro-inflammation. LICOR western blot protocols, IHC world immunohistochemistry protocols, and Applied Biosystems PCR protocols were used for the assays. ANOVA was used for analysis with p<0.05 being statistically significant. *=p<0.05, **=p<0.01, ***=p<0.001. When the drug group was compared to the injury group #=p<0.05, ##=p<0.01, ###=p<0.001. […] Measured components included carbonyls (plot A), superoxide (plot B), reactive oxygen species (ROS) (plot C), and NADPH oxidase 4 (NOX4) (plot D). As shown in A, B and […], administration of salubrinal (sTBI+SAL) reduced protein carbonyls, super-oxides, and total oxidative stress production, respectively.

ER stress = experiment: ER stress, tau kinase and apoptosis markers after blast-induced TBI (western blot, immunohistochemistry, PCR); assay type: in vivo, Sprague Dawley rat
Description: An animal model was used to evaluate TBI, and neuropathological specimens (donated by the Brain Injury Research Institute brain bank) were used to evaluate CTE. TBI was blast induced in the animal model. […] Salubrinal was administered to the animal model following the injury. The ER stress was modulated by the use of salubrinal. […] This example assessed the successful targeting of ER stress after TBI. […] A Sprague Dawley rat was positioned in a protective tube to prevent injury to the peripheral organs, and an acceleration wave was generated and allowed to collide with the skull of the rat. The intensity of the injury was adjusted in a step-wise manner by decreasing or increasing the thickness of the membrane that exploded with pressurized nitrogen gas. An injury paradigm of 50 PSI was selected, which correlates with human concussion, that is the most common type of injury linked to CTE. In FIG. 4, the peak in plot D illustrates the 50 PSI pressure wave. The Sprague Dawley rats were given either one injury, or six injuries over a two-week period. Various time points of sacrifice were chosen to look at markers of ER stress and tauopathy. Salubrinal was administered to the rats after injury to target ER stress. Salubrinal was administered by IP injection 30 minutes after injury using a dose of 1 mg/kg. […] Salubrinal-mediated CHOP reduction may be associated with preservation of the pro-form of Caspase-12 that when cleaved, has been associated with ER-mediated apoptosis or cell death. Reducing CHOP with salubrinal also may result in reduction of sustained oxidative stress and neuro-inflammation. LICOR western blot protocols, IHC world immunohistochemistry protocols, and Applied Biosystems PCR protocols were used for the assays. ANOVA was used for analysis with p<0.05 being statistically significant. *=p<0.05, **=p<0.01, ***=p<0.001. When the drug group was compared to the injury group #=p<0.05, ##=p<0.01, ###=p<0.001.

Sprague Dawley rat [2] = experiment: Morris water maze after blast injury (cognitive performance); assay type: in vivo
Description: as §1

[3] = bTBI animal model, administered following the injury
[4] = post-blast administration (FIG. 6)

## O=C(/C=C/c1ccccc1)NC(NC(=S)Nc1cccc2cccnc12)C(Cl)(Cl)Cl (stereo not drawn) [salubrinal, 3-phenyl-N-[2,2,2-trichloro-1-[[(8-quinolinylamino)thioxomethyl]amino]ethyl]-2-propenamide]
neuroinflammation; 24 hours after injury (FIG. 8 plot A)
  NFκB (pro-inflammatory marker): reduced
neuroinflammation; 24 hours after injury (FIG. 8 plot C)
  IL-1β (pro-inflammatory marker): reduced
neuroinflammation; 24 hours after injury (FIG. 8 plot D)
  TNFα (pro-inflammatory marker): reduced
Sprague Dawley rat [1]; administered after injury, 72 hours after the repeat injury (FIG. 12)
  impulsive-like behavior, time spent in the open arm of the elevated plus maze: reduced
Sprague Dawley rat [1]; administered after injury, seven days after a single injury (FIG. 11)
  impulsive-like behavior, time in the open arm of the elevated plus maze: reduced
Sprague Dawley rat [1]; administered prior to bTBI
  neuropsychiatric deficits: impulsive-like behavior, elevated plus maze: ameliorated
Oxidative stress; 24 hours after injury (FIG. 7 plot A)
  protein carbonyls: reduced
Oxidative stress; 24 hours after injury (FIG. 7 plot B)
  super-oxides: reduced
Oxidative stress; 24 hours after injury (FIG. 7 plot D)
  total oxidative stress production: reduced
ER stress; 1 mg/kg IP 30 minutes after injury
  GSK3β activity: reduced
ER stress; 1 mg/kg IP 30 minutes after injury, 24 hours after a single blast injury (FIG. 5 plot C)
  CHOP (marker of ER stress): prevented the surge; also recorded: significantly reduced
ER stress; 1 mg/kg IP 30 minutes after injury, 24 hours after a single blast injury (FIG. 5 plot E)
  GADD34 (marker of ER stress): inhibited; also recorded: significantly reduced
ER stress; [3]
  ER stress: modulated
  markers of neural degeneration and apoptosis: reducing
ER stress; [4]
  CHOP by immunohistochemistry: significantly reduced
  cleaved Caspase 3 (pro-apoptotic marker) by immunohistochemistry: reduced
Sprague Dawley rat [2]; administered prior to bTBI
  neuropsychiatric deficits: spatial memory, Morris water maze: ameliorated

## CC/C=C\C/C=C\C/C=C\C/C=C\C/C=C\C/C=C\CCC(=O)O [DHA]
ER stress; three weeks following repetitive injury (FIG. 10 plot A)
  ER stress activator BiP: inhibited
ER stress; three weeks following repetitive injury (FIG. 10 plot B)
  tau kinase GSK3β: inhibited
Sprague Dawley rat [2]; after injury (FIG. 13 panel D)
  cognitive learning, Morris water maze: improved
Sprague Dawley rat [2]; after injury (FIG. 13 panel E)
  retention of a learned event, probe trial: enhanced
